Measurements reported in patent US20070212360A1, “Modulation of mitochondrial oxygen consumption for therapeutic purposes” (priority 2006, published 2007).

Assays:
[1] = system: PDK1 in wildtype and HIF1α knockout mouse embryo fibroblasts (MEFs); experiment: Western blot of PDK1 in hypoxic MEFs; type: cell-based; details: 0.5% O2 24 h, 2 ng/ml
Description: FIG. 11. Inhibition of HIF1 increases oxygen consumption in vitro. (a) Western blot of wildtype and HIF1α knockout MEFs exposed normoxia (N) or hypoxia (H) (0.5% O2) for 24 hours in the presence or absence of 2 ng/ml echinomycin. (b) In vitro oxygen consumption of wildtype and HIF1α knockout MEFs (b) after exposure to 24 hours of normoxia or hypoxia (0.5% O2) in the presence or absence of 2 ng/ml echinomycin. Data are normalized to normoxic values. (*) indicate a significant difference relative to control (p<0.05).
Western blots. In brief, cells were harvested directly in RIPA buffer containing protease inhibitors, protein concentrations were quantified (Pierce), 25-50 μg of total protein was electrophoresed on a reducing Tris-Tricine gel, and electroblotted to PVDF membrane. Antibodies used were rabbit anti-PDK1 (Stressgen) (1:2000), murine anti-α tubulin (Research Diagnostics) (1:2000), and rabbit anti-Bnip3 and anti-Bnip3L as described previously by Papandreou et al. (2005) Cancer research 65, 3171-8. (1:500). Primary antibodies were detected with species-specific secondary antibodies labeled with Alkaline Phosphatase (Vector labs) (1:3000) and visualized with ECF (Amersham) on a Storm 860 phosphoimager (Molecular Devices).

[2] = system: RKO and RKOShHIF1α tumors; experiment: Oxygen consumption of freshly explanted RKO tumor xenografts; type: in vivo, mouse; details: 0.12 mg/kg echinomycin ip 24 h prior; vs PBS controls
Description: FIG. 7. Inhibition of HIF1 and PDK1 increases oxygen consumption in vitro and in vivo. (a) Western blots of extracts from RKO and Su.86 cells exposed to normoxia (N) or hypoxia (H) (0.5% O2) for 24 h in the presence or absence of 2 ng/ml echinomycin probed for the indicated proteins. (b) Oxygen consumption rates of RKO and RKOShHIF1α cells (left) and Su.86 cells (right) after 24 h treatment with normoxia or hypoxia (0.5% O2) with or without 2 ng/ml echinomycin. Data are normalized to normoxic samples. (c) Relative oxygen consumption of RKO cells treated with hypoxia (0.5% O2) for 24 h in the presence of increasing concentrations of echinomycin. (d) Oxygen consumption rates of freshly explanted tumor tissue from RKO (n=16) and RKOShHIF1α (n=8) xenografts. (e) Oxygen consumption rates of RKO and RKOShHIF1 tumors from mice treated with 0.12 mg/kg echinomycin ip 24 h prior (n=8), or 50 mg/kg DCA ip 4 h prior (n=8). Data is normalized to PBS treated controls (n=8-16). (*) indicate a significant difference relative to control (p<0.05).
Cell lines and tumor xenografts. […]
Oxygen consumption measurements. […] Oxygen consumption was measured in a 0.5 ml volume using an Oxytherm electrode unit (Hansatech, Norfolk, UK). […] Oxygen consumption was measured as above in a 1 ml volume and normalized to tissue weight.

## CS[C@H]1SC[C@H]2C(=O)N(C)[C@@H](C(C)C)C(=O)OC[C@@H](NC(=O)c3cnc4ccccc4n3)C(=O)N[C@@H](C)C(=O)N(C)[C@@H]1C(=O)N(C)[C@@H](C(C)C)C(=O)OC[C@@H](NC(=O)c1cnc3ccccc3n1)C(=O)N[C@@H](C)C(=O)N2C [echinomycin]
[1]; HIF1α knockout MEFs
  hypoxic expression of PDK1 in HIF1α deficient cells: no effect
[1]; wildtype MEFs
  hypoxic PDK1 induction in wildtype MEFs: blocked PDK1 induction
[2]
  tumor oxygen consumption, RKO wildtype tumors: significantly increased
  tumor oxygen consumption, RKOShHIF1 tumors: no effect
